“And” between values parts separate entries of the source, which are not always exact repeats. Equal values may be shown once. Read-outs that look alike come from different tables or passages of the source.
Columns and labels:
[1] = target: panel of 320 non-olfactory GPCRs (Homo sapiens, UniProt Q9BZJ8); assay type: cell-based
[2] = target: panel of 320 non-olfactory GPCRs (Homo sapiens, UniProt P25025); assay type: cell-based
[3] = target: panel of 320 non-olfactory GPCRs (Homo sapiens, UniProt Q96P67); assay type: cell-based
panel of 320 non-olfactory GPCRs (Homo sapiens, UniProt Q96P67), sequence (Q96P67 whole entry): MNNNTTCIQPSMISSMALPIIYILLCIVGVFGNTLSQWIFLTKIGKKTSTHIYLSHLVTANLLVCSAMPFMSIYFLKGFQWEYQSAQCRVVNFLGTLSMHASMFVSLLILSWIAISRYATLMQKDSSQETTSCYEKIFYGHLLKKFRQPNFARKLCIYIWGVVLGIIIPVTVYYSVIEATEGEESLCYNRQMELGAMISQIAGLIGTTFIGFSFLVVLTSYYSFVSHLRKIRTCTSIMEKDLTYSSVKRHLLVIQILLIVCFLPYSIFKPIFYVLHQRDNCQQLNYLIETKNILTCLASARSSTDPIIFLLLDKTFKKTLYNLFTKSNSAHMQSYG

[4] = target: T1, CB1R with G protein (Gi1-3, Go) (Homo sapiens, UniProt P21554); assay: GTP turnover assay (GTPase-Glo); assay type: biochemical; conditions: replicates, sheet FigS3c
T1 construct: a N-terminal FLAG tag and C-terminal histidine tag was added to human full-length CB1; FLAG (N); histidine tag (C); made in house; host or cells: CB1R: Spodoptera frugiperda Sf9; G proteins: Trichoplusia ni Hi5
T1 sequence (P21554 whole entry): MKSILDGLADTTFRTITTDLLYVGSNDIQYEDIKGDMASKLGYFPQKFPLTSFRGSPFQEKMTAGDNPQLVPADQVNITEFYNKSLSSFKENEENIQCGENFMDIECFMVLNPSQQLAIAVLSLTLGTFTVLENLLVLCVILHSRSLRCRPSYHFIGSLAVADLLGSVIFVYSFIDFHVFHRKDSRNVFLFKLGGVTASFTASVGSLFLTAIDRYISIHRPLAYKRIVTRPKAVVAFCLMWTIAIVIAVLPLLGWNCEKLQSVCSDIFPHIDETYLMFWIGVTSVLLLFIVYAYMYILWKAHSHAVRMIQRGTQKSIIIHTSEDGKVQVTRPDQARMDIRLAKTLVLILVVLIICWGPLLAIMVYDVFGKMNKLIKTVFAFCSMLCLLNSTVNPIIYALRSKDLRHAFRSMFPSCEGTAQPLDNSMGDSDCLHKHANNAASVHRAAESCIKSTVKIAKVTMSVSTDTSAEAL
Description: Analysis of GTP turnover was performed by using a modified protocol of the GTPase-Glo^TM assay (Promega) described previously. Ligand-bound (10 μM ligand incubated for one hour at room temperature) or apo CB1R (1 μM) was mixed with G protein (1 μM) in 20 mM HEPES, pH 7.5, 50 mM NaCl, 0.01% L-MNG/0.001% CHS, 100 μM TCEP, 10 μM GDP and 10 μM GTP and incubated at room temperature. GTPase-Glo-reagent was added to the sample after incubation for 60 min (Gi1-3) and 20 min for (Go). Luminescence was measured after the addition of detection reagent and incubation for 10 min at room temperature using a SpectraMax Paradigm plate reader.

hCB2 = hCB2 (Homo sapiens, UniProt P34972); assay: Radioligand competition binding, HEK293 cells expressing human CB2R; design: expressed in transfected cells; host or cells: HEK293 cells stably expressing human CB2R (Laboratory of Ken Mackie); conditions: hCB2, log[drug], replicate columns
hCB2, sequence (P34972 whole entry): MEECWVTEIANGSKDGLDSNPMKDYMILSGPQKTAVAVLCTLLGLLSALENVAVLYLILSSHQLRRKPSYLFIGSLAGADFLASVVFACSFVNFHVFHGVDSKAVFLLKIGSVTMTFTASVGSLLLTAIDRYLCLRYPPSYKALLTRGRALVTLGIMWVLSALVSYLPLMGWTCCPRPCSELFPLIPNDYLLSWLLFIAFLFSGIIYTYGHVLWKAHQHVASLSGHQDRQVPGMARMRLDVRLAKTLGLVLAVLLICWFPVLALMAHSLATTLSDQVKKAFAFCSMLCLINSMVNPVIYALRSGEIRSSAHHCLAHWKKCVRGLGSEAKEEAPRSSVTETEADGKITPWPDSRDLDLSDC

mice = assay: Rotarod test; assay type: in vivo, mouse; conditions: for dose showing locomotor deficits or sedation, rotarod: i.p.
Malate dehydrogenase = assay: Enzyme inhibition counter-screen, MDH; assay type: biochemical; conditions: for MDH inhibition: Log[7019], sheet FigS2d
Description: (§1) Enzyme inhibition assays to test for colloidal inhibition were performed at room temperature using CLARIOstar Plate Reader (BMG Labtech). Samples were prepared in 50 mM KPi buffer, pH 7.0 with final DMSO concentration at 1% (v/v). Compounds were incubated with 2 nM AmpC β-lactamase (AmpC) or Malate dehydrogenase (MDH) for 5 min. AmpC reactions were initiated by the addition of 50 μM CENTA chromogenic substrate (219475, Calbiochem). […] MDH reactions were initiated by the addition of 200 μM nicotinamide adenine dinucleotide (NADH) (54839, Sigma Aldrich) and 200 μM oxaloacetic acid (324427, Sigma Aldrich). The change in absorbance was monitored at 340 nm for 60 sec. Initial rates were divided by the DMSO control rate to determine % enzyme activity. Each compound was screened at 100μM in triplicate for three independent experiments, if enzyme inhibition greater than 30% was observed, 8-point half-log concentrations were performed in triplicate for three independent experiments. Data was analyzed using GraphPad Prism 9.1.

AmpC β-lactamase = AmpC β-lactamase (Escherichia coli, UniProt P00811); assay type: biochemical; conditions: for AmpC inhibition: Log[7019], sheet FigS2d
AmpC β-lactamase, sequence (P00811 20-377): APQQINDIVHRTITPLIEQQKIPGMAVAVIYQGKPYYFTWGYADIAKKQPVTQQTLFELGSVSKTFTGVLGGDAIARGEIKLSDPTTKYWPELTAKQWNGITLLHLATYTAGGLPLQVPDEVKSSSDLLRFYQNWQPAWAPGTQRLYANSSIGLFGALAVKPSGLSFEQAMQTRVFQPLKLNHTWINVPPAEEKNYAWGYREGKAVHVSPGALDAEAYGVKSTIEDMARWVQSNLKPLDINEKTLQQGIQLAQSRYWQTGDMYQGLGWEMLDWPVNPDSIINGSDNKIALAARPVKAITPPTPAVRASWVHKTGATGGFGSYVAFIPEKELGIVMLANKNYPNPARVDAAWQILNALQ
Description: as §1, with “[…].” for “Each compound was screened at 100μM in triplicate for three independent experiments, if enzyme inhibition greater than 30% was observed, 8-point half-log concentrations were performed in triplicate for three independent experiments.”

panel of 320 non-olfactory GPCRs (Homo sapiens, UniProt Q9BZJ8), sequence (Q9BZJ8 whole entry): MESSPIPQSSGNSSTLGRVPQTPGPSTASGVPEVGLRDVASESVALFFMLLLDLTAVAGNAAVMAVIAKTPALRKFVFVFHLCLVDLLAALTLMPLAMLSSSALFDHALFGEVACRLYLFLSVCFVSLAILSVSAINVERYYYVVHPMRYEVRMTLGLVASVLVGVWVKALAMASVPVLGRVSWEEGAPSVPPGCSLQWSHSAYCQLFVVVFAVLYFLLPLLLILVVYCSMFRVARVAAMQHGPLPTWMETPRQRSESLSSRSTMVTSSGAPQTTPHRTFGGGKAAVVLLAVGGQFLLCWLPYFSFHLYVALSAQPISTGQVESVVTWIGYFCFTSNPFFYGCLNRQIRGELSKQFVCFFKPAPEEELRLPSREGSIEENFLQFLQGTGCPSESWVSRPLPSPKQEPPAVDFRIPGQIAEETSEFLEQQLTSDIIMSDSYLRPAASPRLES
panel of 320 non-olfactory GPCRs (Homo sapiens, UniProt P25025), sequence (P25025 whole entry): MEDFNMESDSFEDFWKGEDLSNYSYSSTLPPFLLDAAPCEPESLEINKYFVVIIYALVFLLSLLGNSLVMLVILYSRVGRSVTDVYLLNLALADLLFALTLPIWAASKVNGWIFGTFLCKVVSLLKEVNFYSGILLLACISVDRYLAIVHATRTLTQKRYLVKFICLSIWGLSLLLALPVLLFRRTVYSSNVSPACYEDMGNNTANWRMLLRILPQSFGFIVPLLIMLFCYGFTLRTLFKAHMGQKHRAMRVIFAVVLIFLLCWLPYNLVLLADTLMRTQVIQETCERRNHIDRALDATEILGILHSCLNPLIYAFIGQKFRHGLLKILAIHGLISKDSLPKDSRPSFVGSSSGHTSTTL

Row | SMILES | Fold of Basal RLU [1] | Fold of Basal RLU [2] | Fold of Basal RLU [3] | radioligand binding, competition curve point (normalized) (hCB2; M = -6.64345) | radioligand binding, competition curve point (normalized) (hCB2; M = -7.35666) | radioligand binding, competition curve point (normalized) (hCB2; M = -8.06987) | radioligand binding, competition curve point (normalized) (hCB2; M = -8.78308) | radioligand binding, competition curve point (normalized) (hCB2; M = -9.49629) | radioligand binding, competition curve point (normalized) (hCB2; M = -10.2095) | radioligand binding, competition curve point (normalized) (hCB2; M = -10.9227) | radioligand binding, competition curve point (normalized) (hCB2; M = -11.6359) | rotarod performance (Figure6b), individual animals (mice; Dose 0.2 mg/kg) | rotarod performance (Figure6b), individual animals (mice; Dose 0.5 mg/kg) | dose showing locomotor deficits or sedation, rotarod (mice) [mg/kg] | further results
1 | COC(=O)[C@@](C)(NC(=O)c1cc(C)n(-c2cccc(C(F)(F)F)c2)n1)c1cccs1 [‘1350] | 1 and 0.7 and 0.9 and 0.8 | 0.8 fold and 1 fold and 1.1 fold | 1 fold and 1.1 fold | 1.586 and -0.1332 | 2.208 and 1.359 | 13.0908 and 10.365 | 37.5933 and 37.49 | 71.1443 and 45.0839 | 95.3669 and 77.3781 | 103.545 and 89.3952 | 105.504 and 103.118 | 300 and 226 and 231 and 240 and 274 and 298 and 237 and 211 | 123 and 300 and 128 and 153 | 0.5 | GTP turnover, normalised (FUB about 100) ([4]; Gi2): 96.8998 and 91.3876 and 87.4526 and 89.8295 and 89.8906 and 82.6279; GTP turnover, normalised (FUB about 100) ([4]; Gi3): 81.2301 and 82.2228 and 81.0231 and 89.3188 and 82.6055 and 85.3572; GTP turnover, normalised (FUB about 100) ([4]; Goa): 86.5272 and 96.4818 and 93.6031 and 96.9291 and 99.611 and 94.5957; GTP turnover, normalised (FUB about 100) ([4]; first block, G protein not printed (Gi2, Gi3, Goa follow)): 83.1663 and 86.2553 and 85.2024 and 81.617 and 83.7026 and 83.2158; rotarod performance (Figure6b), individual animals (mice; Dose 0.1 mg/kg): 275 and 300
2 | Cc1cc(C(=O)NC(C)(c2ccco2)c2ccco2)nn1-c1cccc(C(F)(F)F)c1 [‘4936] | 0.9 and 0.8 and 1 and 1.1 | 1.8 fold and 1.3 fold and 1.4 fold and 1.6 fold | 1 fold and 0.9 fold | 0.8301 and 3.196 | 5.0447 and 7.642 | 20.2107 and 22.6869 | 55.4917 and 61.8361 | 84.5147 and 77.217 | 91.2197 and 92.4778 | 85.5045 and 95.2415 | 108.381 and 91.8049 | 300 and 283 | 300 and 234 and 278 and 166 and 268 and 275 and 273 | 2 | rotarod performance (Figure6b), individual animals (mice; Dose 1.0 mg/kg): 201 and 300 and 258 and 267 and 295 and 215 and 252 and 282 and 235; rotarod performance (Figure6b), individual animals (mice; Dose 2.0 mg/kg): 298 and 90 and 300 and 163 and 260
3 | Cc1nc(CC2CC2)oc1-c1nc(Cc2cc3c(cc2Br)OCO3)no1 [‘7019] |  |  |  |  |  |  |  |  |  |  |  |  |  |  | MDH inhibition (Malate dehydrogenase; uM 0): 0; MDH inhibition (Malate dehydrogenase; uM 1): 0; MDH inhibition (Malate dehydrogenase; uM 1.49996): 13.7; MDH inhibition (Malate dehydrogenase; uM 2): 16.9; MDH inhibition (Malate dehydrogenase; uM -0.500011): 0; MDH inhibition (Malate dehydrogenase; uM -1): 0; AmpC inhibition (AmpC β-lactamase; uM 0): 0; AmpC inhibition (AmpC β-lactamase; uM 1): 0; AmpC inhibition (AmpC β-lactamase; uM 1.49996): 27.6; AmpC inhibition (AmpC β-lactamase; uM 2): 55.1; AmpC inhibition (AmpC β-lactamase; uM -0.500011): 0; AmpC inhibition (AmpC β-lactamase; uM -1): 0
4 | COC(=O)C(NC(=O)c1cc(C)n(-c2cccc(F)c2)n1)c1cccs1 (stereo not shown) [‘51486] |  |  |  |  |  |  |  |  |  |  |  |  |  |  | MDH activity (DMSO = 100), replicate means (Malate dehydrogenase; Rep 1-3 mean, sheet FigureS2c): 74.7583 and 87.0115 and 96.3724; AMPC activity (DMSO = 100), replicate means (AmpC β-lactamase; Rep 1-3 mean, sheet FigureS2c): 133.645 and 104.886 and 117.294

Reference: article PMC11882969 (Nature Communications, 2025)
